# From patent US20250066282A1, “NOVEL ANALOGS OF VALPROIC ACID AND METHODS OF MEDICAL TREATMENT USING THE SAME” (Cereno Scientific AB, priority 2021, published 2025)
# Experiments:
# [1] = reported by Rettie, J. Biol. Chem. 263(27):13733-13738 (1988); cited from earlier work
# C57BL/6 wild type mice [2] = assay: Excessive bleeding assay (tail bleeding time); type: in vivo; settings: tail resection 5 mm, 100 mg/kg IP once a day for five days, compared to control (FIG. 1)
# Method: To determine the risks of excessive bleeding associated with the compounds of the present invention, the last 5 mm of the tail of mice was resected to identify the amount of time necessary for the vessel to properly clot and prevent excessive loss of blood.
# 10-12 weeks old C57BL/6 wild type mice were purchased from Jackson Laboratories for these experiments. Various compounds were administered to the mice via IP injection once a day at a dose of 100 mg/kg of compound for five days prior to resection.
# Mice were sedated with 250 μL of ketamine solution (Ketamine (100 μL)/xylazine (50 μL) in 850 μl. Saline solution). The mice were then placed face down on a heat pad on top of the bead bath to enable the tail to be pulled into a saline-filled tube. 5 mm of the tail as cut with a scalpel and the tail was placed in a saline-filled tube and a timer started. The timer was stopped when the bleeding stopped, but the possibility of re-bleeds was observed from 10 minutes after initial bleeding stopped. If the mouse bleeds continuously for 10 minutes, the experiment was halted and the mouse was euthanized. One-way ANOVA with Dunnett's correction for multiple comparison test was performed to determine statistical significance of bleeding times.
# C57BL/6 wild type mice [3] = assay: Cremaster laser-induced thrombosis assay (platelet accumulation, fibrin formation); type: in vivo; settings: cremaster arteriole laser-induced injury
# Method: The effects of the compounds of the invention and VPA on the ability and timing of clot formation were determined. Specifically, platelet accumulation and fibrin formation in the cremaster artery in forming a non-occlusive clot were measured following laser-induced insult to the vessel in 10-12 week-old mice (C57BL/6 wild type mice purchased from Jackson Laboratories).
# Valproic acid (VPA) was purchased from Sigma-Aldrich as a powder and resuspended in 0.9% Sodium Chloride (saline) to prepare a final stock solution of each compound.
# To assess platelet accumulation and fibrin formation, a Zeiss Axio Examiner Z1 fluorescent multichannel intravital microscope was used. The microscope was equipped with: (1) a solid laser launch system (LaserStack; Ablate! Photoablation system, intelligent Imaging innovations), (2) a high-speed sCMOS camera, and (3) a laser ablation system (intelligent Imaging innovations, Denver, CO, USA). SlideBook 6.0 digital microscopy software for image recording and analysis was also used. An anti-platelet antibody, and an anti-fibrin antibody, both commercially available, were used for imaging purposes.
# The dynamic accumulation of platelets and fibrin within thrombi at the site of the injury in vivo was evaluated in cremaster arteriole in response to laser-induced injury under intravital microscopy. Adult male mice (10-12 weeks old) were treated with 30 mg/kg and 100 mg/kg for 5 days prior to injury were anesthetized by an intraperitoneal injection of ketamine/xylazine (100 and 10 mg/kg, respectively) and the jugular vein was cannulated. A tracheal tube was inserted to facilitate breathing. The cremaster arteriole was surgically prepared and superfused with preheated bicarbonate saline buffer throughout the experiment.
# DyLight 488-conjugated rat anti-mouse platelet GP1bβ antibody (0.1 μg/g; EMFRET Analytics) and Alexa Fluor 647-conjugated anti-fibrin (0.3 μg/g) were administered intravenously via a jugular vein cannula prior to vascular injury. Microcirculation was monitored and recorded under multichannel intravital microscopy.
# Multiple independent thrombi (6-8 thrombi in each mouse) were induced in the arterioles (30-50 μm diameter) in each mouse by a laser ablation system. Images of thrombus formation at the site of injured arterioles were acquired in realtime under 63× water-immersion objective with a Zeiss Axio Examiner Z1 fluorescent microscope equipped with solid laser launch system (LaserStack; Intelligent Imaging Innovations) and high-speed sCMOS camera. All captured images were analyzed for the change of fluorescent intensity over the course of thrombus formation after subtracting fluorescent background using the Slidebook program. […]
# [4] = 100 mg/kg IP for 5 days, versus VPA (FIG. 4)
SMILES,formation of the 4-ene-VPA metabolite compared to VPA [1],bleeding time (C57BL/6 wild type mice [2]),platelet accumulation (C57BL/6 wild type mice [3]; [4]),further results
"[2H]C([2H])(C)CC(CC([2H])([2H])C)C(=O)O [4,4,4′,4′-D4VPA]",considerably less formation of the 4-ene metabolite,–,–,–
"[2H]C([2H])([2H])CCC(CCC([2H])([2H])[2H])C(=O)O [5,5,5,5′,5′,5′D6VPA]",increased amount of the 4-ene-VPA metabolite,–,–,–
"[2H]C([2H])C([2H])([2H])CC(CC([2H])([2H])C([2H])[2H])C(=O)O [Compound Ia, 2-[(2,2,3,3-2H4)propyl](4,4,5,5-2H4)pentanoic acid]",–,best safety profile in terms of risk of excess bleeding,consistent decrease in platelet accumulation over VPA,"platelet accumulation (C57BL/6 wild type mice [3]; 30 mg/kg IP for 5 days, versus VPA (FIG. 2)): consistent decrease; fibrin formation (C57BL/6 wild type mice [3]; 30 mg/kg IP for 5 days, versus VPA (FIG. 3)): consistent decrease"
"[2H]C([2H])C([2H])([2H])CC([2H])(CC([2H])([2H])C([2H])[2H])C(=O)O [Compound Ib, 2-(Propyl-2,2,3,3-d4)pentanoic-2,4,4,5,5-d5 acid]",–,–,consistent decrease in platelet accumulation over VPA,–
"CCCC(CCC)C(=O)O [VPA, Valproic acid]",–,significant increase in bleeding time,–,–
